# From patent publication US20090156668A1, “Ginkgolide Compounds, Compositions, And Extracts, And Uses Thereof” (priority 2004, published 2009)
# Where two headings read alike, the source gives them in different places.
# What was measured:
# [1] = target: platelet activating factor (Homo sapiens, UniProt P25105); details: analogs obtained as racemates, cited from earlier work
# [2] = system: beta-amyloid (1-42)-induced inhibition of long-term potentiation in the CA1 region of hippocampal slices; type: cell-based, mice
# [3] = read-out: anti-PAF IC50; analogs obtained as racemates; cited from earlier work
# [4] = system: rat hippocampal neuron cultures; assay: neuroprotection assay: beta amyloid-induced neuronal cell death, viable cells by cell nuclei counting; details: for number of viable cells (control = 100%): ginkgolide 1 μM + oligomeric amyloid beta, mean±SEM of 3 experiments
# Sequence of platelet activating factor (P25105 whole entry): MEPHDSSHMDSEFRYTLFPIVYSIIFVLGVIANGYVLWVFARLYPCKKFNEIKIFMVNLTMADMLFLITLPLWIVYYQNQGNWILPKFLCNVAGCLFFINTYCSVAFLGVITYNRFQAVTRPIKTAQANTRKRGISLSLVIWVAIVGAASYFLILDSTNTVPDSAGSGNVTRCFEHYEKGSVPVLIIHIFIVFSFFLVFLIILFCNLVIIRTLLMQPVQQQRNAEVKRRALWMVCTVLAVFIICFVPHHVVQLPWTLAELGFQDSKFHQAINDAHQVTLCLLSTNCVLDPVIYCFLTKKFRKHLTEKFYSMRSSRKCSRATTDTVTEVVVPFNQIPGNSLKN
Molecule,rescue of LTP (L-LTP) impairment in slices treated with Aβ [2],number of viable cells (control = 100%) ([4]; 24 h) [%],further results
CC1C(=O)OC2CC34C5CC(C(C)(C)C)C36C(=O)C(=O)OC6OC4(C(=O)O5)C21O (centres unmarked) [10-keto analog],–,–,IC50 ([1]; read-out: anti-PAF IC50): 3.9 µM
"CC(C)(C)[C@]1(O)CC2OC(=O)CC23C(=O)OC2OC(=O)[C@H](O)C231 (some centres unmarked) [BB, bilobalide]",does not rescue L-LTP impairment,–,–
C[C@@H]1C(=O)O[C@H]2CC34C5C[C@@H](C(C)(C)C)C36C(OC(=O)[C@@H]6O)OC4(C(=O)O5)[C@]21O (some centres unmarked) [Ginkgolide A],rescued the LTP to the same values recorded in control untreated slices,50.5±5.7,"IC50 [3]: 1.9 µM; consistently able to prevent amyloid beta-induced cell death ([4]; ginkgolide 1 μM, 24 h): not"
C[C@@H]1C(=O)O[C@H]2CC34C5OC(=O)C3(OC3OC(=O)[C@H](O)C34[C@H](C(C)(C)C)[C@H]5O)[C@]21O (some centres unmarked) [Ginkgolide J],rescued the LTP to the same values recorded in control untreated slices,70.7±1.4,consistently able to prevent amyloid beta-induced cell death [4]: consistently able to prevent cell death; more cells than the other treatments [4]: approximately 40%; prevention of amyloid beta toxicity [4]: appeared to completely prevent amyloid beta toxicity
Ginkgolide B [GB],does not rescue L-LTP impairment,–,IC50 ([1]; read-out: anti-PAF activity IC50): 0.6 µM
Ginkgolide C [GC],does not rescue L-LTP impairment,–,–
